Measurements published in patent US7767659B2, “Synthesis of naturally occurring ecteinascidins and related compounds” (Pharma Mar, S.A., priority 2002, dated 2010).
Like-named read-outs stand apart in the source and are kept apart here.

Tests used:
[1] = tested on: HeLa-APL; assay: Inhibition of cells growth by colorimetric assay (SRB); conditions: Homo sapiens, 48 h
Procedure, shortened: (§1)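 Colorimetric SRB read (490 nm) on triplicate wells after 48 h at 37 °C, 5% CO2. Dose range 10 to 10^−8 μg/ml; 5×10^3 cells/well pre-attached 18 h.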

[2] = tested on: PANC-1; assay: as above; conditions: Homo sapiens, PANC-1, 48 h
Procedure, shortened: as §1

[3] = tested on: SK-MEL-28; assay: as above; conditions: Homo sapiens, SK-MEL-28, 48 h
Procedure, shortened: as §1

[4] = tested on: DU-145; assay: as above; conditions: Homo sapiens, DU-145, 48 h
Procedure, shortened: as §1

[5] = tested on: LNCaP; assay: as above; conditions: Homo sapiens, LNCaP, 48 h
Procedure, shortened: as §1

[6] = tested on: IGROV-1; assay: as above; conditions: Homo sapiens, IGROV-1, 48 h
Procedure, shortened: as §1

[7] = tested on: LoVo-Dox; assay: as above; conditions: Homo sapiens, 48 h
Procedure, shortened: as §1

[8] = tested on: SK-BR-3; assay: as above; conditions: Homo sapiens, SK-BR-3, 48 h
Procedure, shortened: as §1

[9] = tested on: K-562; assay: as above; conditions: Homo sapiens, K562, 48 h
Procedure, shortened: as §1

[10] = tested on: IGROV-ET; assay: as above; conditions: Homo sapiens, 48 h
Procedure, shortened: as §1

[11] = tested on: HeLa; assay: as above; conditions: Homo sapiens, HeLa, 48 h
Procedure, shortened: as §1

[12] = tested on: HT-29; assay: cells; conditions: Homo sapiens, HT-29, 48 h
Procedure, shortened: as §1

[13] = tested on: LoVo; assay: cells; conditions: Homo sapiens, LoVo, 48 h
Procedure, shortened: as §1

[14] = tested on: A-549; assay: cells; conditions: Homo sapiens, A549, 48 h
Procedure, shortened: as §1

C=CCOc1c(C)c2c(c3c1CC1[C@H]4c5c(cc(C)c(OC)c5O)C[C@@H]([C@H](C#N)N1[C@H]3CO)N4C)OCO2 (stereo partly drawn) [compound 2]
GI50 ([1]; read-out: GI50 HELA-APL): 479 nM
CC50 ([1]; read-out: LC50 HELA-APL): 1490 nM
IC (TGI) ([1]; read-out: TGI HELA-APL): 0.844 µM
GI50 ([2]; read-out: GI50 PANC-1): 890 nM
CC50 ([2]; read-out: LC50 PANC-1): 19.2 µM
IC (TGI) ([2]; read-out: TGI PANC-1): 3.26 µM
GI50 ([3]; read-out: GI50 MEL-28): 598 nM
CC50 ([3]; read-out: LC50 MEL-28): 5310 nM
IC (TGI) ([3]; read-out: TGI MEL-28): 1.27 µM
GI50 ([4]; read-out: GI50 DU145): 897 nM
CC50 ([4]; read-out: LC50 DU145): 19.2 µM
IC (TGI) ([4]; read-out: TGI DU145): 3.13 µM
GI50 ([5]; read-out: GI50 LNCAP): 592 nM
CC50 ([5]; read-out: LC50 LNCAP): 2760 nM
IC (TGI) ([5]; read-out: TGI LNCAP): 1.11 µM
GI50 ([6]; read-out: GI50 IGROV): 926 nM
CC50 ([6]; read-out: LC50 IGROV): 18.2 µM
IC (TGI) ([6]; read-out: TGI IGROV): 2.26 µM
GI50 ([7]; read-out: GI50 LOVO-DOX): 924 nM
CC50 ([7]; read-out: LC50 LOVO-DOX): 19.2 µM
IC (TGI) ([7]; read-out: TGI LOVO-DOX): 19.2 µM
GI50 ([8]; read-out: GI50 SK-BR3): 778 nM
CC50 ([8]; read-out: LC50 SK-BR3): 19.2 µM
IC (TGI) ([8]; read-out: TGI SK-BR3): 1.75 µM
GI50 ([9]; read-out: GI50 K562): 516 nM
CC50 ([9]; read-out: LC50 K562): 4790 nM
IC (TGI) ([9]; read-out: TGI K562): 1.22 µM
GI50 ([10]; read-out: GI50 IGROV-ET): 1060 nM
CC50 ([10]; read-out: LC50 IGROV-ET): 19.2 µM
IC (TGI) ([10]; read-out: TGI IGROV-ET): 19.2 µM
GI50 ([11]; read-out: GI50 HELA): 763 nM
CC50 ([11]; read-out: LC50 HELA): 9.8 µM
IC (TGI) ([11]; read-out: TGI HELA): 1.45 µM
GI50 ([12]; read-out: GI50 HT29): 1060 nM
CC50 ([12]; read-out: LC50 HT29): 19.2 µM
IC (TGI) ([12]; read-out: TGI HT29): 14.2 µM
GI50 ([13]; read-out: GI50 LOVO): 533 nM
CC50 ([13]; read-out: LC50 LOVO): 1920 nM
IC (TGI) ([13]; read-out: TGI LOVO): 1.07 µM
GI50 ([14]; read-out: GI50 A549): 633 nM
CC50 ([14]; read-out: LC50 A549): 9.11 µM
IC (TGI) ([14]; read-out: TGI A549): 1.39 µM

COc1cc2c(cc1O)CCN[C@]21CS[C@@H]2c3c(O)c(C)c4c(c3[C@H](COC1=O)N1C2[C@@H]2N[C@@H](Cc3cc(C)c(OC)c(O)c32)[C@@H]1O)OCO4 (stereo partly drawn) [compound 68]
GI50 ([1]; read-out: HELA-APL GI50): 3.81 nM
CC50 ([1]; read-out: HELA-APL LC50): 10.4 nM
IC (TGI) ([1]; read-out: HELA-APL TGI): 0.00632 µM
GI50 ([2]; read-out: PANC-1 GI50): 3.9 nM
CC50 ([2]; read-out: PANC-1 LC50): 2.07 µM
IC (TGI) ([2]; read-out: PANC-1 TGI): 0.0128 µM
GI50 ([3]; read-out: MEL-28 GI50): 5.45 nM
CC50 ([3]; read-out: MEL-28 LC50): 52.1 nM
IC (TGI) ([3]; read-out: MEL-28 TGI): 0.0157 µM
GI50 ([4]; read-out: DU145 GI50): 4.68 nM
CC50 ([4]; read-out: DU145 LC50): 14.2 µM
IC (TGI) ([4]; read-out: DU145 TGI): 0.0015 µM
GI50 ([5]; read-out: LNCAP GI50): 1.59 nM
CC50 ([5]; read-out: LNCAP LC50): 8.64 nM
IC (TGI) ([5]; read-out: LNCAP TGI): 0.0037 µM
GI50 ([6]; read-out: IGROV GI50): 3.94 nM
CC50 ([6]; read-out: IGROV LC50): 0.0351 µM
IC (TGI) ([6]; read-out: IGROV TGI): 0.00801 µM
GI50 ([7]; read-out: LOVO-DOX GI50): 472 nM
CC50 ([7]; read-out: LOVO-DOX LC50): 14.2 µM
IC (TGI) ([7]; read-out: LOVO-DOX TGI): 14.2 µM
GI50 ([8]; read-out: SK-BR3 GI50): 7.2 nM
CC50 ([8]; read-out: SK-BR3 LC50): 14.2 µM
IC (TGI) ([8]; read-out: SK-BR3 TGI): 0.153 µM
GI50 ([9]; read-out: K562 GI50): 2.65 nM
CC50 ([9]; read-out: K562 LC50): 234 nM
IC (TGI) ([9]; read-out: K562 TGI): 0.0066 µM
GI50 ([10]; read-out: IGROV-ET GI50): 290 nM
CC50 ([10]; read-out: IGROV-ET LC50): 8.63 µM
IC (TGI) ([10]; read-out: IGROV-ET TGI): 1.66 µM
GI50 ([11]; read-out: HELA GI50): 4 nM
CC50 ([11]; read-out: HELA LC50): 0.0124 µM
IC (TGI) ([11]; read-out: HELA TGI): 0.00706 µM
GI50 ([12]; read-out: HT29 GI50): 6.66 nM
CC50 ([12]; read-out: HT29 LC50): 14.2 µM
IC (TGI) ([12]; read-out: HT29 TGI): 0.015 µM
GI50 ([13]; read-out: LOVO GI50): 12 nM
CC50 ([13]; read-out: LOVO LC50): 1930 nM
IC (TGI) ([13]; read-out: LOVO TGI): 0.048 µM
GI50 ([14]; read-out: A549 GI50): 28.1 nM
CC50 ([14]; read-out: A549 LC50): 6.29 µM
IC (TGI) ([14]; read-out: A549 TGI): 0.113 µM
